Measured values published in patent US6359176B1, “Cationic surfactants, process for producing the same and utilization thereof” (Matsumoto Yushi-Seiyaku Co., Ltd., priority 1999, dated 2002).

Assays:
[1] = tested on: activated sludge; assay: Biodegradability: degradation by microorganisms with degradation tester and closed system oxygen consumption meter; details: 14 days biodegradability test
Protocol: The biodegradability of the derivatives was determined by checking the degree of degradation of those chemicals by microorganisms (procedures defined in Japanese domestic low for regulation of chemical substances and in OECD) with a degradation tester and closed system oxygen consumption meter. The test was continued for 14 days and the biodegradability data was calculated into percentage.
The 100-% degradability in the testing means that whole of a test sample has been degraded into inorganic substances such as carbon dioxide.

[2] = Determination of craft point (temperature at which 1 wt % surfactant dissolves clearly, visual inspection); assay type: physicochemical; details: 1 weight % aqueous solution in pure water
Protocol: (§1) Determination of craft point, critical micelle concentration and surface tension
(§2) An aqueous solution of 1 weight % of a surfactant (solution with pure water) was prepared and the craft point, at which a surfactant dissolves clearly, was determined with visual inspection. And the aqueous solution of several surfactants with varied concentration was prepared with pure water and their surface tension at 25° C. was determined.

[3] = Determination of critical micelle concentration and surface tension of aqueous surfactant solutions; assay type: physicochemical; details: pure water, 25° C.; for Surface tension γ cmc (mN/m): at cmc
Protocol: as §1, §2

| Compound | Effect on activated sludge (in words) [1] | Craft point (1 wt %, ° C.) [2] [°C] | Critical micelle concentration cmc [3] [mol/L] | Surface tension γ cmc (mN/m) [3] [mN/m] |
| --- | --- | --- | --- | --- |
| CCCCCCCCCCCCCCCC[N+](C)(C)C.[Br-] [Cetyl trimethyl ammonium bromide] | inhibited the propagation of activated sludge | – | – | – |
| CCCCCCCCCCCC(=O)OCC(O)C(O)C(O)C(O)C[N+](C)(C)C.[Cl-] (stereo not drawn) [Monolaurate derivative] | – | <0 | 0.0012 | 30.2 |
| CCCCCCCCCCCCCC(=O)OCC(O)C(O)C(O)C(O)C[N+](C)(C)C.[I-] (stereo not drawn) [Monomyristate derivative] | – | <0 | 0.00034 | 34.2 |
| CCCCCCCCCCCCCCCC(=O)OCC(O)C(O)C(O)C(O)C[N+](C)(C)C.[Cl-] (stereo not drawn) [Monopalmitate derivative] | – | 33.5 | – | – |
| CCCCCCCCCCCCCCCCCC(=O)OCC(O)C(O)C(O)C(O)C[N+](C)(C)C.[I-] (stereo not drawn) [Monostearate derivative] | – | 40.5 | – | – |
